Legend:
[1] = target: T1, FGFR1-GST (Homo sapiens, UniProt P11362); test: FGFR-1 TR-FRET biochemical assay
T1 construct: GST; made in house
Method in brief: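 LANCE TR-FRET with 5 nM FGFR1-GST, 0.6 uM ATP, 25 nM biotin-poly GT in HEPES pH 7.5/MgCl2, 1% DMSO; compound added before enzyme, 1 h at room temperature. 665/615 nm ratio, background without ATP; % inhibition over 10 μM–0.128 nM final for IC50.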

[2] = system: histone 3 phosphorylation in colon carcinoma (HCT116); test: p-Histone3 assay; assay type: cell-based; settings: Homo sapiens, HCT-116, 24 h, HCT116, 24 hours treatment
Experimental: Compounds were assayed for the inhibition of histone 3 phosphorylation in colon carcinoma (HCT116). Briefly, 20,000 cells/well were seeded in a 96-well black-walled, poly-d-lysine plates in RPMI+10% FBS and incubated at 37° C. in 5% CO2 overnight. The following day, the cells were treated with compounds for 24 hours at 37° C. Following compound treatment; plates were centrifuged at 1000 rpm for 2 minutes and washed twice with 100 μl of cold sterile TBS. Cells were then fixed with cold 3.7% formaldehyde in TBS (4° C. for 1 hour) and then permeabalized with 0.1% Triton-X-100 in TBS (room temperature for 30 minutes). Plates were then washed with of 0.25% BSA-TBS and blocked with BSA solution for 1 hour at room temperature while shaking. The supernatant was removed and replaced with diluted primary antibody (anti-phospho-histone 3, serine 10, Cell Signaling) at 1:250 in 0.25% BSA-TBS and incubated overnight at 4° C. The plates were washed and treated with diluted secondary antibody (anti-rabbit Eu-labeled) at 1:10000 in 0.25% BSA-TBS (room temperature for 1 hour). The antibody solution was removed from each well and washed eight times. The wash buffer was replaced with 50 μl pre-warmed enhancement solution and mixed on the orbital shaker for 10 minutes. Fluorescence was detected with a Victor V Fluorescence Detector. The data are expressed as percent inhibition: % inhibition=100−((Signal with inhibitor-background)/(Signal without inhibitor-background))×100.

T1 sequence (P11362 22-822): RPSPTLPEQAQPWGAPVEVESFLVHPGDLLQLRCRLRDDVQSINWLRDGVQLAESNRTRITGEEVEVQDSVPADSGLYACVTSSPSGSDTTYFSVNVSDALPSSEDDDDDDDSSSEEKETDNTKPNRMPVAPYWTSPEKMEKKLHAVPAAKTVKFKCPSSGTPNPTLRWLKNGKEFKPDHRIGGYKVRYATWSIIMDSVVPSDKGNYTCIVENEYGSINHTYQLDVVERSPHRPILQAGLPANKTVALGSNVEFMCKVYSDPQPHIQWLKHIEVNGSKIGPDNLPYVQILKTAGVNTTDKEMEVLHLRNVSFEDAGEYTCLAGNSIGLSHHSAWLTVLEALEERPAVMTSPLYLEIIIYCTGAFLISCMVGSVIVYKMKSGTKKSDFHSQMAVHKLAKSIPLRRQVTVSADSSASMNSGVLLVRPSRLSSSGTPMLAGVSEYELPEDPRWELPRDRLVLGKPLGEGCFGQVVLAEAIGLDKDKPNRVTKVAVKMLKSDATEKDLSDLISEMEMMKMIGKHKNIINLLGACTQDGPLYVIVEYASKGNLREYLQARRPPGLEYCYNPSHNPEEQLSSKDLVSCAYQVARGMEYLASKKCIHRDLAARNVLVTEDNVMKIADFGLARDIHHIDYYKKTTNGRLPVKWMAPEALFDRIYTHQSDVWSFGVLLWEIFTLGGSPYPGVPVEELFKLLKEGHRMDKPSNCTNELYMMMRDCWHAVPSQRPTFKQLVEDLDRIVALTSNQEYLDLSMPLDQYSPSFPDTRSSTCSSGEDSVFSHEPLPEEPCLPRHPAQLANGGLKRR

Structure (SMILES)	IC50 ([1]; bounds given in nM) [nM]	IC50 ([2]; bounds given in μM) [µM]	IC50 ([2]; lower bound in nM) [µM]	IC50 ([1]; upper bound in μM) [nM]
Nc1ncnn2c(CN3CCOCC3)c(CO)c(-c3ccc(NC(=O)Nc4cc(C(F)(F)F)ccn4)cc3)c12 [Example 62, N-{4-[4-amino-6-(hydroxymethyl)-7-(morpholin-4-ylmethyl)pyrrolo[2,1-f][1,2,4]triazin-5-yl]phenyl}-N′-[4-(trifluoromethyl)-pyridin-2-yl]urea]	10 to 100	5 to 10		
N#CCc1c(-c2ccc(NC(=O)Nc3cc(C(F)(F)F)ccc3F)c(F)c2)c2c(N)ncnn2c1CN1CCOCC1 [Example 69, N-{4-[4-amino-6-(cyanomethyl)-7-(morpholin-4-ylmethyl)-pyrrolo[2,1-f][1,2,4]triazin-5-yl]-2-fluorophenyl}-N′-[2-fluoro-5-(trifluoromethyl)phenyl]urea]	< 10	< 5	> 0.5	
COCc1c(-c2ccc(NC(=O)Nc3cc(C(F)(F)F)ccc3F)cc2)c2c(N)ncnn2c1CN1CCN(S(C)(=O)=O)CC1 [Example 20, N-[4-(4-amino-6-(methoxymethyl)-7-{[4-(methylsulfonyl)piperazin-1-yl]methyl}pyrrolo[2,1-f][1,2,4]triazin-5-yl)phenyl]-N′-[2-fluoro-5-(trifluoromethyl)phenyl]urea]	10 to 100	5 to 10		
N#Cc1c(-c2ccc(NC(=O)Nc3cc(C(F)(F)F)ccc3F)cc2)c2c(N)ncnn2c1CN1CCOCC1 [Example 54, N-4-[4-amino-6-cyano-7-(morpholin-4-ylmethyl)pyrrolo[2,1-f][1,2,4]triazin-5-yl]phenyl-N′-[2-fluoro-5-(trifluoromethyl)phenyl]urea]	< 10	< 5	> 0.5	
Nc1ncnn2c(CN3CCOCC3)c(CO)c(-c3ccc(NC(=O)Nc4cc(C(F)(F)F)ccc4F)cc3)c12 [Example 34, N-4-[4-amino-6-(hydroxymethyl)-7-(morpholin-4-ylmethyl)-pyrrolo[2,1-f][1,2,4]triazin-5-yl]phenyl-N′-[2-fluoro-5-(trifluoromethyl)-phenyl]urea]	10 to 100	< 5	> 0.5	
Cc1c(-c2ccc(NC(=O)Nc3cc(C(F)(F)F)ccc3F)cc2)c2c(N)ncnn2c1CN1CCOCC1 [Example 111, N-{4-[4-amino-6-methyl-7-(morpholin-4-ylmethyl)pyrrolo[2,1-f][1,2,4]triazin-5-yl]phenyl}-N′-[2-fluoro-5-(trifluoromethyl)phenyl]urea]	< 10	< 5	> 0.5	
CN1CCN(Cc2c(C(=O)NCC(F)(F)F)c(-c3ccc(NC(=O)Nc4cc(C(F)(F)F)ccc4F)cc3)c3c(N)ncnn23)CC1 [Example 10, 4-amino-5-{4-[({[2-fluoro-5-(trifluoromethyl)-phenyl]amino}carbonyl)amino]phenyl}-7-[(4-methylpiperazin-1-yl)methyl]-N-(2,2,2-trifluoroethyl)pyrrolo[2,1-f][1,2,4]triazine-6-carboxamide]	< 10	< 5	> 0.5	
CN(C)Cc1c(C(=O)NCC(F)(F)F)c(-c2ccc(NC(=O)Nc3cccc(C(F)(F)F)n3)cc2)c2c(N)ncnn12 [Example 53, 4-amino-7-[(dimethylamino)methyl]-N-(2,2,2-trifluoroethyl)-5-{-4-[({[6-(trifluoromethyl)-pyridin-2-yl]amino}carbonyl)-amino]phenyl}pyrrolo[2,1-f][1,2,4]triazine-6-carboxamide]		< 5	> 0.5	
CS(=O)(=O)N1CCN(Cc2c(CC#N)c(-c3ccc(NC(=O)Nc4cc(C(F)(F)F)ccn4)cc3)c3c(N)ncnn23)CC1 [Example 67, N-[4-(4-amino-6-(cyanomethyl)-7-{[4-(methylsulfonyl)piperazin-1-yl]methyl}pyrrolo[2,1-f][1,2,4]triazin-5-yl)phenyl]-N′-[4-(trifluoromethyl)pyridin-2-yl]urea]	10 to 100			
Nc1ncnn2c(CN3CCOCC3)c(-c3cnco3)c(-c3ccc(NC(=O)Nc4cc(C(F)(F)F)ccn4)cc3)c12 [Example 27, N-4-[4-amino-7-(morpholin-4-ylmethyl)-6-(1,3-oxazol-5-yl)pyrrolo[2,1-f][1,2,4]triazin-5-yl]phenyl-N′-[4-(trifluoromethyl)pyridin-2-yl]urea]	< 10			
COCc1c(-c2ccc(NC(=O)Nc3cc(C)ccc3F)c(F)c2)c2c(N)ncnn2c1CN1CCOCC1 [Example 131, N-{4-[4-amino-6-(methoxymethyl)-7-(morpholin-4-ylmethyl)-pyrrolo[2,1-f][1,2,4]triazin-5-yl]-2-fluorophenyl}-N′-(2-fluoro-5-methyl-phenyl)urea]	< 10			
COCCNCc1c(-c2ccc(NC(=O)Nc3cc(C(F)(F)F)ccc3F)cc2)c2c(N)ncnn2c1CN1CCOCC1 [Example 108, N-4-[4-amino-6-[(2-methoxyethyl)amino]methyl-7-(morpholin-4-ylmethyl)pyrrolo[2,1-f][1,2,4]triazin-5-yl]phenyl-N′-[2-fluoro-5-(trifluoromethyl)phenyl]urea]	> 100			< 1000
CCc1c(-c2ccc(NC(=O)Nc3cc(C(F)(F)F)ccn3)cc2)c2c(N)ncnn2c1CN1CCOCC1 [Example 148, N-{4-[4-amino-6-ethyl-7-(morpholin-4-ylmethyl)pyrrolo[2,1-f][1,2,4]triazin-5-yl]phenyl}-N′-[4-(trifluoromethyl)pyridin-2-yl]urea]	10 to 100			
COCc1c(-c2ccc(NC(=O)Nc3cc(C(F)(F)F)ccc3F)c(F)c2)c2c(N)ncnn2c1C1CCN(C(=O)N(C)C)CC1 [Example 150, 4-{4-amino-5-[3-fluoro-4-({[2-fluoro-5-(trifluoromethyl)-phenyl]carbamoyl}amino)phenyl]-6-(methoxymethyl)-pyrrolo[2,1f][1,2,4]-triazin-7-yl}-N,N-dimethylpiperidine-1-carboxamide]	> 100			< 1000
CC(=O)N1CCN(Cc2c(-c3cnco3)c(-c3ccc(NC(=O)Nc4cc(C(F)(F)F)ccc4F)cc3)c3c(N)ncnn23)CC1 [Example 32, N-4-[7-[(4-acetylpiperazin-1-yl)methyl]-4-amino-6-(1,3-oxazol-5-yl)pyrrolo[2,1-f][1,2,4]triazin-5-yl]phenyl-N′-[2-fluoro-5-(trifluoromethyl)phenyl]urea]	< 10			
N#CCc1c(-c2ccc(NC(=O)Nc3cc(C(F)(F)F)ccn3)cc2)c2c(N)ncnn2c1CN1CCOCC1 [Example 63, N-{4-[4-amino-6-(cyanomethyl)-7-(morpholin-4-ylmethyl)-pyrrolo[2,1-f][1,2,4]triazin-5-yl]phenyl}-N′-[4-(trifluoromethyl)-pyridin-2-yl]urea]	< 10			
COCc1c(-c2ccc(NC(=O)Nc3cc(C(F)(F)F)ccc3F)c(F)c2)c2c(N)ncnn2c1CN1CCOCC1 [Example 45, N-{4-[4-amino-6-(methoxymethyl)-7-(morpholin-4-ylmethyl)pyrrolo[2,1-f][1,2,4]triazin-5-yl]-2-fluorophenyl}-N′-[2-fluoro-5-(trifluoromethyl)phenyl]urea]	< 10			
Nc1ncnn2c(CN3CCOCC3)c(Cl)c(-c3cc(F)c(NC(=O)Nc4cc(C(F)(F)F)ccc4F)cc3F)c12 [Example 156, N-{4-[4-amino-6-chloro-7-(morpholin-4-ylmethyl)pyrrolo[2,1-f][1,2,4]triazin-5-yl]-2,5-difluorophenyl}-N′-[2-fluoro-5-(trifluoromethyl)-phenyl]urea]	> 100			< 1000
CC(=O)c1c(-c2ccc(NC(=O)Nc3cc(C(F)(F)F)ccn3)c(F)c2)c2c(N)ncnn2c1CN1CCOCC1 [Example 60, N-4-[6-acetyl-4-amino-7-(morpholin-4-ylmethyl)pyrrolo[2,1-f][1,2,4]triazin-5-yl]-2-fluorophenyl-N′-[4-(trifluoromethyl)pyridin-2-yl]urea]	< 10			
Nc1ncnn2c(CN3CCOCC3)c(C(=O)C3CC3)c(-c3ccc(NC(=O)Nc4cc(C(F)(F)F)ccn4)cc3)c12 [Example 89, N-{4-[4-amino-6-(cyclopropylcarbonyl)-7-(morpholin-4-ylmethyl)pyrrolo[2,1-f][1,2,4]triazin-5-yl]phenyl}-N′-[4-(trifluoromethyl)pyridin-2-yl]urea]	10 to 100			
Nc1ncnn2c(CN3CCOCC3)c(Cl)c(-c3ccc(NC(=O)Nc4cc(C(F)(F)F)ccc4F)c(F)c3)c12 [Example 152, N-{4-[4-amino-6-chloro-7-(morpholin-4-ylmethyl)pyrrolo[2,1-f][1,2,4]triazin-5-yl]-2-fluorophenyl}-N′-[2-fluoro-5-(trifluoromethyl)-phenyl]urea]	10 to 100			
CC(=O)c1c(-c2ccc(NC(=O)Nc3cccc(C(F)(F)F)c3)c(F)c2)c2c(N)ncnn2c1CN1CCOCC1 [Example 58, N-4-[6-acetyl-4-amino-7-(morpholin-4-ylmethyl)pyrrolo[2,1-f][1,2,4]triazin-5-yl]-2-fluorophenyl-N′-[3-(trifluoromethyl)phenyl]urea]	< 10			
